Laboratory results published in PubChem BioAssay AID330 (DTP/NCI, 2004).
Values joined by “and” are separate entries in the source; they are usually repeats but may differ in a detail not shown here. Identical values can stand only once. Toxic doses and inconclusive results are not listed. Peptide text beside a SMILES is read from it. * marks the point of attachment. Boc = CC(C)(C)OC(=O)*; OtBu = CC(C)(C)O*; NHNH2 = NN*

System: P388 leukemia ip, CD2F1 mice, survival T/C
Test: NCI In Vivo Anticancer Drug Screen. Data for tumor model P388 Leukemia (intraperitoneal) in CD2F1 (CDF1) mice
Settings: endpoint: median survival time, higher = longer survival
Method in brief: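 Mice carrying the transplanted tumor received test compound or vehicle. Survival was recorded in each group, and the value is the treated-group measurement divided by that of the vehicle-treated control group.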

[1] = dose: 60.0 mg/kg/injection, schedule: Q01DX005 (ip), vehicle: saline with Tween-80
[2] = dose: 120.0 mg/kg/injection, schedule: Q01DX005 (ip), vehicle: saline with Tween-80
[3] = dose: 240.0 mg/kg/injection, schedule: Q01DX005 (ip), vehicle: saline with Tween-80
[4] = dose: 100.0 mg/kg/injection, schedule: Q01DX009 (ip), vehicle: saline
[5] = dose: 200.0 mg/kg/injection, schedule: Q01DX009 (ip), vehicle: saline

## COc1cccc2c1C(=O)c1c(O)c3c(c(O)c1C2=O)[C@@H](N=[N+]=[N-])[C@@](O)(C(C)=O)C[C@@H]3OC1CC(N)C(O)C(C)O1 (stereo partly drawn)
dose: 3.13 mg/kg/injection, schedule: Q04DX003 (ip), vehicle: water
  T/C: 102 % of control
dose: 6.25 mg/kg/injection, schedule: Q04DX003 (ip), vehicle: water
  T/C: 111 % of control
dose: 12.5 mg/kg/injection, schedule: Q04DX003 (ip), vehicle: water
  T/C: 117 % of control and 120 % of control
dose: 25.0 mg/kg/injection, schedule: Q04DX003 (ip), vehicle: water
  T/C: 122 % of control
dose: 50.0 mg/kg/injection, schedule: Q04DX003 (ip), vehicle: water
  T/C: 105 % of control and 120 % of control
dose: 100.0 mg/kg/injection, schedule: Q04DX003 (ip), vehicle: water
  T/C: 100 % of control

## O=c1c2ccccc2cnn1CO
dose: 100.0 mg/kg/injection, schedule: Q04DX003 (ip), vehicle: saline
  T/C: 114 % of control
dose: 200.0 mg/kg/injection, schedule: Q04DX003 (ip), vehicle: saline
  T/C: 119 % of control

## COc1ccc(Cc2nnc(C)c3c(C)[nH]nc23)cc1
dose: 50.0 mg/kg/injection, schedule: Q01DX009 (ip), vehicle: Klucel (hydroxypropylcellulose) (HPC)
  T/C: 91 % of control
dose: 100.0 mg/kg/injection, schedule: Q01DX009 (ip), vehicle: Klucel (hydroxypropylcellulose) (HPC)
  T/C: 91 % of control
dose: 200.0 mg/kg/injection, schedule: Q01DX009 (ip), vehicle: Klucel (hydroxypropylcellulose) (HPC)
  T/C: 86 % of control

## CS(=O)(=O)Nc1ccc(Nc2c3ccccc3nc3cc(N)ccc23)cc1
dose: 1.32 mg/kg/injection, schedule: Q04DX003 (ip), vehicle: saline
  T/C: 154 % of control
dose: 1.78 mg/kg/injection, schedule: Q04DX003 (ip), vehicle: saline
  T/C: 167 % of control
dose: 2.0 mg/kg/injection, schedule: Q04DX003 (ip), vehicle: saline
  T/C: 172 % of control
dose: 2.66 mg/kg/injection, schedule: Q04DX003 (ip), vehicle: saline
  T/C: 158 % of control
dose: 2.9 mg/kg/injection, schedule: Q04DX003 (ip), vehicle: saline
  T/C: 187 % of control
dose: 3.0 mg/kg/injection, schedule: Q04DX003 (ip), vehicle: saline
  T/C: 181 % of control
dose: 4.0 mg/kg/injection, schedule: Q04DX003 (ip), vehicle: saline
  T/C: 155 % of control
dose: 4.4 mg/kg/injection, schedule: Q04DX003 (ip), vehicle: saline
  T/C: 204 % of control
dose: 4.5 mg/kg/injection, schedule: Q04DX003 (ip), vehicle: saline
  T/C: 163 % of control
dose: 6.0 mg/kg/injection, schedule: Q04DX003 (ip), vehicle: saline
  T/C: 192 % of control
dose: 6.6 mg/kg/injection, schedule: Q04DX003 (ip), vehicle: saline
  T/C: 212 % of control
dose: 10.0 mg/kg/injection, schedule: Q04DX003 (ip), vehicle: saline
  T/C: 112 % of control

## O=C1CSC(c2ccc(F)cc2)N1c1nncs1 (stereo not drawn)
[1]
  T/C: 99 % of control
[2]
  T/C: 97 % of control
[3]
  T/C: 101 % of control

## CCC(C)C(NC(=O)CNC(=O)OC(C)(C)C)C(=O)NC(C(=O)NC(CCC(=O)OC(C)(C)C)C(=O)NN)C(C)C (stereo not drawn) (Boc-GIVE(OtBu)-NHNH2; configuration not given here)
dose: 6.25 mg/kg/injection, schedule: Q01DX001 (ip), vehicle: saline with Tween-80
  T/C: 100 % of control
dose: 12.5 mg/kg/injection, schedule: Q01DX001 (ip), vehicle: saline with Tween-80
  T/C: 100 % of control
dose: 25.0 mg/kg/injection, schedule: Q01DX001 (ip), vehicle: saline with Tween-80
  T/C: 95 % of control

## N#Cc1c(-c2ccc(Cl)c(Cl)c2)c(-c2ccc(Cl)c(Cl)c2)nn(CCO)c1=O
dose: 25.0 mg/kg/injection, schedule: Q04DX002 (ip), vehicle: distilled water + Tween-80
  T/C: 95 % of control
dose: 50.0 mg/kg/injection, schedule: Q04DX002 (ip), vehicle: distilled water + Tween-80
  T/C: 93 % of control
dose: 100.0 mg/kg/injection, schedule: Q04DX002 (ip), vehicle: distilled water + Tween-80
  T/C: 93 % of control
dose: 200.0 mg/kg/injection, schedule: Q04DX002 (ip), vehicle: distilled water + Tween-80
  T/C: 87 % of control

## CC1=NCCN=C(C)C1N=Nc1ccccc1
dose: 100.0 mg/kg/injection, schedule: Q04DX003 (ip), vehicle: saline with Tween-80
  T/C: 90 % of control
dose: 200.0 mg/kg/injection, schedule: Q04DX003 (ip), vehicle: saline with Tween-80
  T/C: 90 % of control

## N=c1c2c(ncn1CCc1ccccc1)CCN(Cc1ccccc1)C2
dose: 20.0 mg/kg/injection, schedule: Q01DX009 (ip), vehicle: saline with Tween-80
  T/C: 91 % of control
dose: 40.0 mg/kg/injection, schedule: Q01DX009 (ip), vehicle: saline with Tween-80
  T/C: 94 % of control

## NC(=S)NNC(=O)c1cccs1
[1]
  T/C: 108 % of control
[2]
  T/C: 100 % of control
[3]
  T/C: 99 % of control

## NC(N)=NCCCC(N)C(=O)CC(Cc1ccccc1)C(=O)O (stereo not drawn)
dose: 8.8 mg/kg/injection, schedule: Q01DX005 (ip), vehicle: water
  T/C: 104 % of control
dose: 17.0 mg/kg/injection, schedule: Q01DX005 (ip), vehicle: water
  T/C: 108 % of control
dose: 34.0 mg/kg/injection, schedule: Q01DX005 (ip), vehicle: water
  T/C: 106 % of control
dose: 68.0 mg/kg/injection, schedule: Q01DX005 (ip), vehicle: water
  T/C: 100 % of control

## CSCC(=O)O
dose: 50.0 mg/kg/injection, schedule: Q01DX009 (ip), vehicle: saline
  T/C: 106 % of control
[4]
  T/C: 106 % of control
[5]
  T/C: 97 % of control

## Nc1cc(S(=O)(=O)c2ccc(O)c(N)c2)ccc1O
[4]
  T/C: 111 % of control and 92 % of control
[5]
  T/C: 102 % of control and 104 % of control
dose: 400.0 mg/kg/injection, schedule: Q01DX009 (ip), vehicle: saline
  T/C: 100 % of control and 95 % of control

## C=Cn1c([N+](=O)[O-])cnc1/C=C/c1ccc(C(=O)NCCO)cc1
dose: 100.0 mg/kg/injection, schedule: Q04DX002 (ip), vehicle: saline with Tween-80
  T/C: 96 % of control
dose: 200.0 mg/kg/injection, schedule: Q04DX002 (ip), vehicle: saline with Tween-80
  T/C: 93 % of control
dose: 400.0 mg/kg/injection, schedule: Q04DX002 (ip), vehicle: saline with Tween-80
  T/C: 93 % of control

## O=C(O)C1C2c3ccccc3C(c3ccccc32)C1C(=O)NCC1CC1 (stereo not drawn)
dose: 60.0 mg/kg/injection, schedule: Q01DX005 (ip), vehicle: Klucel (hydroxypropylcellulose) (HPC)
  T/C: 109 % of control
dose: 120.0 mg/kg/injection, schedule: Q01DX005 (ip), vehicle: Klucel (hydroxypropylcellulose) (HPC)
  T/C: 110 % of control

## Nc1nc(-c2ccc([N+](=O)[O-])cc2)c([N+](=O)[O-])c(=O)[nH]1
dose: 3.0 mg/kg/injection, schedule: Q01DX009 (ip), vehicle: saline with Tween-80
  T/C: 105 % of control
dose: 6.0 mg/kg/injection, schedule: Q01DX009 (ip), vehicle: saline with Tween-80
  T/C: 110 % of control
dose: 12.0 mg/kg/injection, schedule: Q01DX009 (ip), vehicle: saline with Tween-80
  T/C: 110 % of control

## O=S(=O)(F)c1ccc(O)cc1
dose: 15.0 mg/kg/injection, schedule: Q01DX005 (ip), vehicle: saline
  T/C: 96 % of control
dose: 30.0 mg/kg/injection, schedule: Q01DX005 (ip), vehicle: saline
  T/C: 99 % of control
dose: 60.0 mg/kg/injection, schedule: Q01DX005 (ip), vehicle: saline
  T/C: 99 % of control and 97 % of control

## CC1C(c2ccccc2)OC(N2CCOCC2)C(C)(C)CN1C (stereo not drawn)
dose: 50.0 mg/kg/injection, schedule: Q01DX005 (ip), vehicle: saline with Tween-80
  T/C: 108 % of control and 93 % of control
dose: 100.0 mg/kg/injection, schedule: Q01DX005 (ip), vehicle: saline with Tween-80
  T/C: 98 % of control and 101 % of control and 116 % of control
dose: 200.0 mg/kg/injection, schedule: Q01DX005 (ip), vehicle: saline with Tween-80
  T/C: 101 % of control and 119 % of control and 121 % of control
dose: 400.0 mg/kg/injection, schedule: Q01DX005 (ip), vehicle: saline with Tween-80
  T/C: 101 % of control

## CC12CCC(Br)C(C)(C)C1CC=C1C(=O)OCC1O2 (stereo not drawn)
dose: 7.5 mg/kg/injection, schedule: Q01DX009 (ip), vehicle: Klucel (hydroxypropylcellulose) (HPC)
  T/C: 101 % of control
dose: 15.0 mg/kg/injection, schedule: Q01DX009 (ip), vehicle: Klucel (hydroxypropylcellulose) (HPC)
  T/C: 105 % of control
dose: 30.0 mg/kg/injection, schedule: Q01DX009 (ip), vehicle: Klucel (hydroxypropylcellulose) (HPC)
  T/C: 111 % of control
dose: 60.0 mg/kg/injection, schedule: Q01DX009 (ip), vehicle: Klucel (hydroxypropylcellulose) (HPC)
  T/C: 111 % of control

## C=C1C(=O)C23CC[C@H]4C(C)(CCC[C@]4(C)C(=O)O)[C@@H]2CCC1C3 (stereo partly drawn)
dose: 3.75 mg/kg/injection, schedule: Q01DX005 (ip), vehicle: Klucel (hydroxypropylcellulose) (HPC)
  T/C: 86 % of control
dose: 7.5 mg/kg/injection, schedule: Q01DX005 (ip), vehicle: Klucel (hydroxypropylcellulose) (HPC)
  T/C: 91 % of control
dose: 15.0 mg/kg/injection, schedule: Q01DX005 (ip), vehicle: Klucel (hydroxypropylcellulose) (HPC)
  T/C: 87 % of control
dose: 30.0 mg/kg/injection, schedule: Q01DX005 (ip), vehicle: Klucel (hydroxypropylcellulose) (HPC)
  T/C: 98 % of control
